In patent US7402548B2, “Benzoxazole compounds, process for producing the same and herbicides” (Kyoyu Agri Co., Ltd., priority 2000, dated 2008):

Assays:
[1] = tested on: blackgrass; assay: Foliar spread test for upland field; type: in vivo, Alopecurus aegualis; set-up: key: 0 = normal development, 5 = all killed (6 ranks vs. untreated); conditions: foliar spray, 500 ppm, 3 weeks, glass house 25° C.
Method in brief: (§1)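 Scores on a 0–5 scale (0 normal development, 5 all killed), relative to untreated controls, were taken 3 weeks post-treatment in a 25 °C glass house. Treatment was a uniform foliar spray at 500 ppm (0.5% surfactant) onto roughly 2-week-old soil-grown plants.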

[2] = tested on: common lambsquarters; assay: Foliar spread test for upland field; type: in vivo, Chenopodium album; set-up: key: 0 = normal development, 5 = all killed (6 ranks vs. untreated); conditions: foliar spray, 500 ppm, 3 weeks, glass house 25° C.
Method in brief: as §1

[3] = tested on: barnyardgrjass; assay: Foliar spread test for upland field; type: in vivo, Eschinochloa crusgalli; set-up: key: 0 = normal development, 5 = all killed (6 ranks vs. untreated); conditions: foliar spray, 500 ppm, 3 weeks, glass house 25° C.
Method in brief: as §1

[4] = tested on: Cyperus serotinus Rottb.; assay: Herbicidal test for paddy field; type: in vivo; conditions: 500 g/ha, dropwise addition to paddy water at 1.5 leaf stage of barnyard grass; glass house 25° C., 3 weeks; rank 0-5 vs non-treated district
Method: (§2) Wagner pots, each having an area of 1/5000 are, were packed with Ube soil (alluvial soil) and planted with seeds or tubers of young rice plant, barnyard grass, bulrush, Cyperus serotinus Rottb., arrowhead and monochoria. Then, the pots were filled with water to a depth of 3 cm.
(§3) Each wettable powder of the desired Compounds (I) shown in Tables 1 to 21, 24, 25, 28 and 29 prepared in accordance with Example 2 was diluted with water containing a surfactant (0.05%) and subjected to dropwise addition treatment by using pipet so that an effective concentration of the compound (I) in each herbicide became 500 g/ha at 1.5 leaf stage of barnyard grass.
(§4) These plants were controlled in a glass house at an average temperature of 25° C. for 3 weeks, and then herbicidal effects thereof were investigated.
(§5) The herbicidal effects are evaluated according to the following 6 ranks as compared with non-treated district. (0: normal development, 1: Less damaged, 2: Slightly damaged, 3: Moderately damaged, 4: Severely damaged, 5: All killed). Incidentally, “-” in the column means not investigated.

[5] = tested on: annual bluegrass; assay: Foliar spread test for upland field; type: in vivo, Poa annua; set-up: key: 0 = normal development, 5 = all killed (6 ranks vs. untreated); conditions: foliar spray, 500 ppm, 3 weeks, glass house 25° C.
Method in brief: as §1

[6] = tested on: Xanthium pensylvanicum; assay: Foliar spread test for upland field; type: in vivo; set-up: key: 0 = normal development, 5 = all killed; conditions: foliar spray, 500 ppm, 3 weeks, glass house 25° C.
Method: as §5
(§6) Wagner pots, each having an area of 1/5000 are, were packed with volcanic ash soil and then each seed of corn, soybean, cotton, wheat, solgum, sugar beat, Large crabgrass, barnyardgrjass, green foxtail, blackgrass, annual bluegrass, common lambsquarters, livid amaranth, velvetleaf, morning glory, Xanthium pensylvanicum and Cassia obtusifolia was planted, covered with soil and grown in a glass house at an average temperature of 25° C. for about 2 weeks.
(§7) Each wettable powder of the desired compounds (I) shown in Tables 1 to 21, 24, 25, 28 and 29 prepared in accordance with Example 2 was diluted to 500 ppm with water containing a surfactant (0.5%) and then uniformly sprayed on the above respective plants.
(§8) After these plants were controlled in a glass house at an average temperature of 25° C. for 3 weeks, the herbicidal effects thereof were investigated.
(§9) The herbicidal effects were evaluated according to the evaluation method described in the above (1).

[7] = tested on: Cassia obtusifolia; assay: Foliar spread test for upland field; type: in vivo; set-up: key: 0 = normal development, 5 = all killed; conditions: foliar spray, 500 ppm, 3 weeks, glass house 25° C.
Method: as §5, §6, §7, §8, §9

[8] = tested on: morning glory; assay: Foliar spread test for upland field; type: in vivo, Ipomoea spps.; set-up: key: 0 = normal development, 5 = all killed (6 ranks vs. untreated); conditions: foliar spray, 500 ppm, 3 weeks, glass house 25° C.
Method in brief: as §1

[9] = tested on: Large crabgrass; assay: Foliar spread test for upland field; type: in vivo, Digitaria adscendens; set-up: key: 0 = normal development, 5 = all killed (6 ranks vs. untreated); conditions: foliar spray, 500 ppm, 3 weeks, glass house 25° C.
Method in brief: as §1

[10] = tested on: livid amaranth; assay: Foliar spread test for upland field; type: in vivo, Amaranthus lividus; set-up: key: 0 = normal development, 5 = all killed (6 ranks vs. untreated); conditions: foliar spray, 500 ppm, 3 weeks, glass house 25° C.
Method in brief: as §1

[11] = tested on: velvetleaf; assay: Foliar spread test for upland field; type: in vivo, Abutilon theophrasti; set-up: key: 0 = normal development, 5 = all killed (6 ranks vs. untreated); conditions: foliar spray, 500 ppm, 3 weeks, glass house 25° C.
Method in brief: as §1

[12] = tested on: green foxtail; assay: Foliar spread test for upland field; type: in vivo, Setaria viridis; set-up: key: 0 = normal development, 5 = all killed (6 ranks vs. untreated); conditions: foliar spray, 500 ppm, 3 weeks, glass house 25° C.
Method in brief: as §1

[13] = tested on: barnyard grass; assay: Herbicidal test for paddy field; type: in vivo, Eschinochloa crusgalli; conditions: 500 g/ha, dropwise addition to paddy water at 1.5 leaf stage of barnyard grass; glass house 25° C., 3 weeks; rank 0-5 vs non-treated district
Method: as §2, §3, §4, §5

[14] = tested on: corn; assay: Foliar spread test for upland field; type: in vivo; set-up: key: 0 = normal development, 5 = all killed (6 ranks vs. untreated); conditions: foliar spray, 500 ppm, 3 weeks, glass house 25° C.
Method in brief: as §1

[15] = tested on: solgum; assay: Foliar spread test for upland field; type: in vivo; set-up: key: 0 = normal development, 5 = all killed (6 ranks vs. untreated); conditions: foliar spray, 500 ppm, 3 weeks, glass house 25° C.
Method in brief: as §1

[16] = tested on: cotton; assay: Foliar spread test for upland field; type: in vivo; set-up: key: 0 = normal development, 5 = all killed (6 ranks vs. untreated); conditions: foliar spray, 500 ppm, 3 weeks, glass house 25° C.
Method in brief: as §1

[17] = tested on: sugar beat; assay: Foliar spread test for upland field; type: in vivo; set-up: key: 0 = normal development, 5 = all killed (6 ranks vs. untreated); conditions: foliar spray, 500 ppm, 3 weeks, glass house 25° C.
Method in brief: as §1

[18] = tested on: soybean; assay: Foliar spread test for upland field; type: in vivo; set-up: key: 0 = normal development, 5 = all killed (6 ranks vs. untreated); conditions: foliar spray, 500 ppm, 3 weeks, glass house 25° C.
Method in brief: as §1

[19] = tested on: wheat; assay: Foliar spread test for upland field; type: in vivo; set-up: key: 0 = normal development, 5 = all killed (6 ranks vs. untreated); conditions: foliar spray, 500 ppm, 3 weeks, glass house 25° C.
Method in brief: as §1

[20] = tested on: arrowhead; assay: Herbicidal test for paddy field; type: in vivo, Sagittaria pygmaea; conditions: 500 g/ha, dropwise addition to paddy water at 1.5 leaf stage of barnyard grass; glass house 25° C., 3 weeks; rank 0-5 vs non-treated district
Method: as §2, §3, §4, §5

[21] = tested on: bulrush; assay: Herbicidal test for paddy field; type: in vivo, Scrips juncoides; conditions: 500 g/ha, dropwise addition to paddy water at 1.5 leaf stage of barnyard grass; glass house 25° C., 3 weeks; rank 0-5 vs non-treated district
Method: as §2, §3, §4, §5

[22] = tested on: corn; assay: Soil treatment test for upland field; type: in vivo; set-up: key: 0 = normal development, 5 = all killed; conditions: 500 g/ha, 3 weeks, glass house 25° C.
Method in brief: (§10)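 Pre-emergence: seeds sown in alluvial Ube soil, wettable powder diluted in water with 0.05% surfactant sprayed on soil surface at 500 g/ha. Plants held in glasshouse at 25° C average for 3 weeks. Damage scored 0 (normal) to 5 (all killed) versus untreated.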

[23] = tested on: solgum; assay: Soil treatment test for upland field; type: in vivo; set-up: key: 0 = normal development, 5 = all killed; conditions: 500 g/ha, 3 weeks, glass house 25° C.
Method in brief: as §10

[24] = tested on: sugar beat; assay: Soil treatment test for upland field; type: in vivo; set-up: key: 0 = normal development, 5 = all killed; conditions: 500 g/ha, 3 weeks, glass house 25° C.
Method in brief: as §10

[25] = tested on: soybean; assay: Soil treatment test for upland field; type: in vivo; set-up: key: 0 = normal development, 5 = all killed; conditions: 500 g/ha, 3 weeks, glass house 25° C.
Method in brief: as §10

[26] = tested on: wheat; assay: Soil treatment test for upland field; type: in vivo; set-up: key: 0 = normal development, 5 = all killed; conditions: 500 g/ha, 3 weeks, glass house 25° C.
Method in brief: as §10

[27] = tested on: green foxtail; assay: Soil treatment test for upland field; type: in vivo, Setaria viridis; set-up: key: 0 = normal development, 5 = all killed; conditions: 500 g/ha, 3 weeks, glass house 25° C.
Method in brief: as §10

[28] = tested on: morning glory; assay: Soil treatment test for upland field; type: in vivo, Ipomoea spps.; set-up: key: 0 = normal development, 5 = all killed; conditions: 500 g/ha, 3 weeks, glass house 25° C.
Method in brief: as §10

[29] = tested on: blackgrass; assay: Soil treatment test for upland field; type: in vivo, Alopecurus aegualis; set-up: key: 0 = normal development, 5 = all killed; conditions: 500 g/ha, 3 weeks, glass house 25° C.
Method in brief: as §10

[30] = tested on: Large crabgrass; assay: Soil treatment test for upland field; type: in vivo, Digitaria adscendens; set-up: key: 0 = normal development, 5 = all killed; conditions: 500 g/ha, 3 weeks, glass house 25° C.
Method in brief: as §10

[31] = tested on: livid amaranth; assay: Soil treatment test for upland field; type: in vivo, Amaranthus lividus; set-up: key: 0 = normal development, 5 = all killed; conditions: 500 g/ha, 3 weeks, glass house 25° C.
Method in brief: as §10

[32] = tested on: annual bluegrass; assay: Soil treatment test for upland field; type: in vivo, Poa annua; set-up: key: 0 = normal development, 5 = all killed; conditions: 500 g/ha, 3 weeks, glass house 25° C.
Method in brief: as §10

[33] = tested on: common lambsquarters; assay: Soil treatment test for upland field; type: in vivo, Chenopodium album; set-up: key: 0 = normal development, 5 = all killed; conditions: 500 g/ha, 3 weeks, glass house 25° C.
Method in brief: as §10

[34] = tested on: barnyard grass; assay: Soil treatment test for upland field; type: in vivo, Eschinochloa crusgalli; set-up: key: 0 = normal development, 5 = all killed; conditions: 500 g/ha, 3 weeks, glass house 25° C.
Method in brief: as §10

[35] = tested on: velvetleaf; assay: Soil treatment test for upland field; type: in vivo, Abutilon theophrasti; set-up: key: 0 = normal development, 5 = all killed; conditions: 500 g/ha, 3 weeks, glass house 25° C.
Method in brief: as §10

Row | Compound | Effects Blackgrass [1] | Effects Common lambsquarters [2] | Effects Barnyardgrass [3] | Effects Cyperus serotinus Rottb. [4] | Effects Annual bluegrass [5] | Effects Morning glory [8] | Effects Large crabgrass [9] | Effects Livid amaranth [10] | Effects Velvetleaf [11] | Effects Green foxtail [12] | Effects Barnyardgrass [13] | Effects Corn [14] | Effects Solgum [15] | Effects Sotton [16] | Effects Sugar beat [17] | Effects Soybean [18] | Effects Wheat [19] | Effects Bulrush [21] | Effects Corn [22] | Effects Solgum [23] | also measured
1 | N#Cc1ccc2oc(-c3cccc(Oc4cccc(C(F)(F)F)c4)n3)nc2c1 [I-a-18] | 1 | 4 | 1 | 0 | 2 | 5 | 2 | 5 | 4 | 5 | 3 | 1 | 1 | 4 | 4 | 3 | 1 | 0 | – | – | Effects Common Cocklebur [6]: 4; Effects Sicklepod [7]: 5; Effects Arrowhead [20]: 0
2 | CCC(=Cc1cccc(C(F)(F)F)c1)c1nc2cc(C(F)(F)F)ccc2o1 [I-c-86] | 3 | 5 | 2 | 3 | 4 | 5 | 4 | 5 | 3 | 4 | 5 | 3 | 2 | 4 | 4 | 5 | 2 | 4 | 1 | 1 | Effects Sugar beat [24]: 5; Effects Soybean [25]: 0; Effects Wheat [26]: 0; Effects Green foxtail [27]: 5; Effects Morning glory [28]: 5; Effects Blackgrass [29]: 5; Effects Large crabgrass [30]: 5; Effects Livid amaranth [31]: 5; Effects Annual bluegrass [32]: 5; Effects Common lambsquarters [33]: 5; Effects Barnyardgrass [34]: 5; Effects Velvetleaf [35]: 5
3 | CCC(=Cc1cccc(C(F)(F)F)c1)c1nc2cc(F)c(F)cc2o1 [I-c-111] | 4 | 5 | 3 | 1 | 4 | 5 | 4 | 5 | 3 | 4 | 5 | 3 | 4 | 4 | 4 | 5 | 3 | 4 | 2 | 3 | Effects Sugar beat [24]: 5; Effects Soybean [25]: 5; Effects Wheat [26]: 5; Effects Green foxtail [27]: 5; Effects Morning glory [28]: 4; Effects Blackgrass [29]: 5; Effects Large crabgrass [30]: 5; Effects Livid amaranth [31]: 5; Effects Annual bluegrass [32]: 5; Effects Common lambsquarters [33]: 5; Effects Barnyardgrass [34]: 5; Effects Velvetleaf [35]: 5
4 | CCC(=Cc1cccc(C(F)(F)F)c1)c1nc2cc(C#N)c(F)cc2o1 [I-c-137] | 3 | 5 | 3 | 2 | 4 | 5 | 4 | 5 | 4 | 4 | 4 | 3 | 2 | 4 | 4 | 5 | 2 | 4 | 2 | 2 | Effects Sugar beat [24]: 5; Effects Soybean [25]: 3; Effects Wheat [26]: 1; Effects Green foxtail [27]: 5; Effects Morning glory [28]: 5; Effects Blackgrass [29]: 5; Effects Large crabgrass [30]: 5; Effects Livid amaranth [31]: 5; Effects Annual bluegrass [32]: 5; Effects Common lambsquarters [33]: 5; Effects Barnyardgrass [34]: 5; Effects Velvetleaf [35]: 5
5 | CCCC(=Cc1cccc(C(F)(F)F)c1)c1nc2cc(C#N)c(F)cc2o1 [I-c-139] | 4 | 5 | 3 | 1 | 4 | 5 | 4 | 5 | 4 | 4 | 4 | 2 | 2 | 4 | 4 | 5 | 2 | 3 | 2 | 3 | Effects Sugar beat [24]: 5; Effects Soybean [25]: 5; Effects Wheat [26]: 2; Effects Green foxtail [27]: 5; Effects Morning glory [28]: 5; Effects Blackgrass [29]: 5; Effects Large crabgrass [30]: 5; Effects Livid amaranth [31]: 5; Effects Annual bluegrass [32]: 5; Effects Common lambsquarters [33]: 5; Effects Barnyardgrass [34]: 5; Effects Velvetleaf [35]: 5
